Reference: the supplement of paper PMC10307832

Experiments:
Test in all cases: relative viability (nuclei count vs DMSO), 5 days (fraction); higher = more cells survive
[1] = compound: CS(=O)(=O)c1ccc(-c2cnc(N)c(C(=O)Nc3ccccc3)n2)cc1 [VE-821] + CS(=O)(=O)CCNCc1ccc(-c2ccc3ncnc(Nc4ccc(OCc5cccc(F)c5)c(Cl)c4)c3c2)o1 [Lapatinib] (partner 2 µM)
Procedure, shortened: (§1)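 Relative viability was taken as the ratio of nuclei in treated wells to nuclei in vehicle wells. Lung cancer cell lines in 1536-well plates received compounds by pin tool one day after seeding, either one drug alone or a fixed anchor-drug dose plus five library-drug doses (not always all listed) in √10 steps. Nuclei were counted on 4× images after 5 days of treatment, and values are medians of duplicate plates.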

[2] = compound: CS(=O)(=O)c1ccc(-c2cnc(N)c(C(=O)Nc3ccccc3)n2)cc1 [VE-821] + CS(=O)(=O)N1CCN(Cc2cc3nc(-c4cccc5[nH]ncc45)nc(N4CCOCC4)c3s2)CC1 [Pictilisib] (partner 1 µM)
Procedure, shortened: as §1

[3] = compound: N#CC[C@H](C1CCCC1)n1cc(-c2ncnc3[nH]ccc23)cn1 [Ruxolitinib] + CS(=O)(=O)N1CCN(Cc2cc3nc(-c4cccc5[nH]ncc45)nc(N4CCOCC4)c3s2)CC1 [Pictilisib] (partner 1 µM)
Procedure, shortened: as §1

[4] = compound: N#CC[C@H](C1CCCC1)n1cc(-c2ncnc3[nH]ccc23)cn1 [Ruxolitinib] + Nc1ncn([C@H]2C[C@H](O)[C@@H](CO)O2)c(=O)n1 [Decitabine] (partner 2 µM)
Procedure, shortened: as §1

| Cell Line | relative viability ([1]; first compound 0.08 µM) | relative viability ([1]; first compound 0.253 µM) | relative viability ([1]; first compound 0.8 µM) | relative viability ([1]; first compound 2.53 µM) | relative viability ([1]; first compound 8 µM) | relative viability ([2]; first compound 0.08 µM) | relative viability ([2]; first compound 0.253 µM) | relative viability ([2]; first compound 0.8 µM) | relative viability ([2]; first compound 2.53 µM) | relative viability ([2]; first compound 8 µM) | relative viability ([3]; first compound 0.08 µM) | relative viability ([3]; first compound 0.253 µM) | relative viability ([3]; first compound 0.8 µM) | relative viability ([3]; first compound 2.53 µM) | relative viability ([3]; first compound 8 µM) | relative viability ([4]; first compound 0.08 µM) | relative viability ([4]; first compound 0.253 µM) | relative viability ([4]; first compound 0.8 µM) | relative viability ([4]; first compound 2.53 µM) | relative viability ([4]; first compound 8 µM) |
| --- | --- | --- | --- | --- | --- | --- | --- | --- | --- | --- | --- | --- | --- | --- | --- | --- | --- | --- | --- | --- |
| NCI-H1666 | 0.839 | 0.57 | 0.713 | 0.623 | 0.462 | 0.516 | 0.365 | 0.399 | 0.441 | 0.403 | 0.384 | 0.453 | 0.483 | 0.415 | 0.611 | 0.601 | 0.666 | 0.753 | 0.678 | 0.721 |
| NCI-H1734 | 1.43 | 1.04 | 1.03 | 1.16 | 0.73 | 0.453 | 0.47 | 0.433 | 0.527 | 0.36 | 0.479 | 0.417 | 0.435 | 0.37 | 0.468 | 0.512 | 0.485 | 0.613 | 0.423 | 0.494 |
| NCI-H1755 | 1.09 | 0.997 | 0.961 | 0.981 | 0.861 | 0.509 | 0.359 | 0.416 | 0.418 | 0.363 | 0.425 | 0.43 | 0.469 | 0.329 | 0.297 | 0.742 | 0.686 | 0.755 | 0.694 | 0.667 |
| NCI-H1792 | 1.04 | 0.964 | 0.913 | 0.966 | 0.816 | 0.274 | 0.393 | 0.281 | 0.319 | 0.271 | 0.259 | 0.289 | 0.278 | 0.197 | 0.214 | 0.516 | 0.544 | 0.602 | 0.425 | 0.476 |
| NCI-H1793 | 0.868 | 0.735 | 0.642 | 1.31 | 0.815 | 0.356 | 0.312 | 0.273 | 0.431 | 0.425 | 0.311 | 0.409 | 0.25 | 0.38 | 0.282 | 0.436 | 0.502 | 0.488 | 0.392 | 0.413 |
| NCI-H1915 | 1 | 0.999 | 0.994 | 1.04 | 0.88 | 1.06 | 0.785 | 0.982 | 1.07 | 0.652 | 0.894 | 0.925 | 0.952 | 0.803 | 0.835 | 0.262 | 0.278 | 0.275 | 0.237 | 0.233 |
| NCI-H1944 | 1.09 | 0.811 | 0.748 | 0.935 | 0.386 | 0.364 | 0.325 | 0.348 | 0.339 | 0.294 | 0.362 | 0.334 | 0.381 | 0.323 | 0.332 | 0.445 | 0.394 | 0.467 | 0.393 | 0.409 |
| NCI-H1975 | 0.884 | 0.531 | 0.856 | 0.948 | 0.669 | 0.312 | 0.216 | 0.298 | 0.267 | 0.26 | 0.302 | 0.254 | 0.285 | 0.243 | 0.231 | 0.329 | 0.384 | 0.36 | 0.304 | 0.222 |
